For one data set, the target named is T1, human GLP-1R (Homo sapiens, UniProt P43220).
T1 construct: expressed in transfected cells; host or cells: CHO-K1 clonal cell line
In words: cAMP HTRF agonist activity assay in CHO-K1 cells expressing GLP-1R. On Activity against human GLP-1R (EC50 nM): 5% FBS, 0.1% Casein. In kind it is cell-based. The method in brief: (§1)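 cAMP accumulation measured by competitive HTRF after 30 min incubation of polypeptides with 5000 receptor-expressing CHO-K1 cells/well at 37°C. Percent of maximal response versus concentration fitted to a four-parameter logistic to give relative EC50.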
For orientation: In TR-FRET formats the signal depends on donor and acceptor labels being close together.

Data set [1] in a line: Pharmacokinetics in mice after single intravenous injection. On the set-up: species or system C57 mice. As to conditions: mouse, in vivo, male C57 mice, single intravenous dose 200 nmol/kg, plasma; for clearance: read-out: CLp; for half-life: read-out: T1/2 (converted). The method in brief: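 Plasma concentrations were measured by positive-mode ESI LC-MS/MRM, with verapamil as internal standard, at time points from 5 min to 72 h. Samples came from three male C57 mice per compound, aged 4-6 weeks, dosed once intravenously with 200 nmol/kg in 1×PBS; PK parameters were derived with PKSolver.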

For the next data set, the target named is T2, human GCGR (Homo sapiens, UniProt P47871).
T2 construct: expressed in transfected cells; host or cells: CHO-K1 clonal cell line
T2 sequence (P47871 26-477): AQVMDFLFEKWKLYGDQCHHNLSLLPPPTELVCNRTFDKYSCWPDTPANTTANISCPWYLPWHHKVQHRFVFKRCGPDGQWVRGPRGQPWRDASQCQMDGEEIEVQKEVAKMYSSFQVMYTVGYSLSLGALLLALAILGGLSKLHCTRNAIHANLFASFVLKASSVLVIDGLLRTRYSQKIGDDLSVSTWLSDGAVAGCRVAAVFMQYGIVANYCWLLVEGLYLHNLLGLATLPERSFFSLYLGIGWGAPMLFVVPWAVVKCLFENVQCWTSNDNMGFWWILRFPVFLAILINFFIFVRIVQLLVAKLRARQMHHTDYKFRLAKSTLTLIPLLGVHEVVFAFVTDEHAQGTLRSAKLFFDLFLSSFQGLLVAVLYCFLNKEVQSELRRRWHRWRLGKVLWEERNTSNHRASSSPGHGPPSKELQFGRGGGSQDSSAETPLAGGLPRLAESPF
Description: cAMP HTRF agonist activity assay in CHO-K1 cells expressing GCGR. On Activity against human GCGR (EC50 nM): 5% FBS, 0.1% Casein. In kind it is cell-based. The protocol:
Functional activity was determined in CHO-K1 clonal cell lines expressing GIPR, GLP-1R, and GCGR. […] Each recipient cell (5000 cells/well) was added to an SV 96-well plate (Cisbio, 66PL96025) and incubated with the prepared polypeptide at 37°Cfor 30 min. The resulting increase in intracellular cAMP was quantitatively measured using the cAMP-GS dynamic HTRF assay kit (Cisbio, 62AM4PEJ). Briefly, the intracellular cAMP levels were determined by adding cAMP-d2 conjugate in cell lysis buffer, followed by the antibody anti-cAMP-Eu cryptate (also in cell lysis buffer).
Using the maximum response percentage vs. the added polypeptide concentration, the relative EC50 values were derived through nonlinear regression analysis and fitted to a four-parameter logarithmic equation. For specific data, refer to Tables 7-1 to 7-8 below. […]

In a further data set the target is T3, human GIPR (Homo sapiens, UniProt P48546).
T3 construct: expressed in transfected cells; host or cells: CHO-K1 clonal cell line
T3 sequence (P48546 22-466): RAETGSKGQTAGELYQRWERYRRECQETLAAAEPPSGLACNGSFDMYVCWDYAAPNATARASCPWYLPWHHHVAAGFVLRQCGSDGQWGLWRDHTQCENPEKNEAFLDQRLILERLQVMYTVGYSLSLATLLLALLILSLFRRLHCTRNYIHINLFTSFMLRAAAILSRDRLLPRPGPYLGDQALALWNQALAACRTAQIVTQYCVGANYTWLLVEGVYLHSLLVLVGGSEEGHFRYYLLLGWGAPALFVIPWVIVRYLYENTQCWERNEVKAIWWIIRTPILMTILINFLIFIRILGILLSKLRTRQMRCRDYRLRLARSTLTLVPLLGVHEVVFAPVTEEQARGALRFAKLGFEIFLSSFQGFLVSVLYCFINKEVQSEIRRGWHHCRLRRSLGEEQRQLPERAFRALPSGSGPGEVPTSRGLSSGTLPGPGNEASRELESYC
Description: cAMP HTRF agonist activity assay in CHO-K1 cells expressing GIPR. On Activity against human GIPR (EC50 nM): 5% FBS, 0.1% Casein. It counts as cell-based. The method in brief: as §1

The mark [2] stands for this setting: read-out: Activity against human GLP-1R (EC50 nM).
Where [3] appears, read: read-out: Activity against human GIPR (EC50 nM).
Setting [4] is: read-out: Activity against human GCGR (EC50 nM).

The record followed here is EP4745153A1, “GLP-1, GIP AND GCG RECEPTOR […] USE THEREOF” (Jiangsu Hengrui Pharmaceuticals Co., Ltd., priority 2023, dated 2025).

Like-named read-outs stand apart in the source and are kept apart here. Starred links: 1 amine or outer side, 2 acyl side, 3 side chain; linkers in the order of their positions; H or OH if unused. Non-standard residues stand in square brackets, D forms with d. Residues, ends and D or L forms follow the SMILES beside them. Groups on a side chain read outwards from the residue. ξ: configuration not given here. *: point of attachment. C20 diacid = O=C(O)CCCCCCCCCCCCCCCCCCC(=O)*; γGlu = O=C(O)[C@H](CCC(=O)[*:2])N[*:1]; αMeK = C[C@](N)(CCCCN)C(=O)O; ξIva = CCC(C)(N)C(=O)O; AEEA = NCCOCCOCC(=O)O; Aib = CC(C)(N)C(=O)O

T1 sequence (P43220 24-463): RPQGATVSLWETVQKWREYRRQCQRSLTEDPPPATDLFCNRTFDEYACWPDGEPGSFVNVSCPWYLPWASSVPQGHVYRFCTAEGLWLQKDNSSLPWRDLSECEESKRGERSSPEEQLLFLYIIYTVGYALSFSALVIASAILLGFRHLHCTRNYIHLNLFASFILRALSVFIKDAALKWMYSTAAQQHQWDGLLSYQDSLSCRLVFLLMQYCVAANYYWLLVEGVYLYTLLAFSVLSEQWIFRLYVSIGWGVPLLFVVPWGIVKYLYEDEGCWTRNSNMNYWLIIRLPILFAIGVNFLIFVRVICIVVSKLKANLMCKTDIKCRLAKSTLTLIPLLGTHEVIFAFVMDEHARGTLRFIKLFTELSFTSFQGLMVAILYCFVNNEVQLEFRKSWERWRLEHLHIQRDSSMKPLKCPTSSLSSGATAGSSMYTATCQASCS

As a reminder, the EC50 is the concentration giving half of the maximal effect. For orientation: AUC(0-inf) means total exposure, with the tail of the curve extrapolated. For the compound `CC[C@H](C)[C@H](NC(=O)[C@H](CO)NC(=O)[C@H](CC(C)C)NC(=O)[C@H](CC(=O)O)NC(=O)[C@H](CO)NC(=O)[C@@H](NC(=O)[C@H](Cc1ccccc1)NC(=O)[C@@H](NC(=O)CNC(=O)[C@H](Cc1c[nH]cn1)NC(=O)C(C)(C)NC(=O)[C@@H](N)Cc1c[nH]cn1)[C@@H](C)O)[C@@H](C)O)C(=O)N[C@@](C)(CC(C)C)C(=O)N[C@@H](CC(C)C)C(=O)N[C@@H](CCC(=O)O)C(=O)N[C@@H](CCCCNC(=O)COCCOCCNC(=O)COCCOCCNC(=O)CC[C@H](NC(=O)CCCCCCCCCCCCCCCCCCC(=O)O)C(=O)O)C(=O)N[C@@H](CCCCN)C(=O)N[C@@H](C)C(=O)N[C@@H](C)C(=O)NC(C)(CC)C(=O)N[C@@H](CCC(=O)O)C(=O)N[C@@H](Cc1ccccc1)C(=O)N[C@H](C(=O)N[C@@H](CCC(=O)O)C(=O)N[C@@H](Cc1c[nH]c2ccccc12)C(=O)N[C@@H](CC(C)C)C(=O)N[C@@H](CC(C)C)C(=O)N[C@@H](C)C(=O)NCC(=O)NCC(=O)N1CCC[C@H]1C(=O)N[C@@H](CO)C(=O)N[C@@H](CO)C(=O)NCC(=O)N[C@@H](C)C(=O)N1CCC[C@H]1C(=O)N1CCC[C@H]1C(=O)N1CCC[C@H]1C(=O)N[C@@H](CO)C(N)=O)C(C)C` (stereo partly drawn) [Compound 0138], the EC50 on human GLP-1R is 0.019 nM. For the same compound, in data set [1], the AUC(0-inf) came out at 18.5 µM·h, the C0 was 3.28 µM, the clearance turned out to be 0.181 mL/min/kg and the half-life was 8.2 h. In addition, on human GCGR, the response was half-maximal at 0.055 nM (EC50).
`CC[C@H](C)[C@H](NC(=O)[C@H](CC(C)C)NC(=O)[C@H](Cc1c[nH]c2ccccc12)NC(=O)[C@H](CCC(=O)O)NC(=O)[C@@H](NC(=O)[C@H](Cc1ccccc1)NC(=O)[C@H](CCC(=O)O)NC(=O)C(C)(CC)NC(=O)[C@H](C)NC(=O)[C@H](C)NC(=O)[C@H](CCCCN)NC(=O)[C@H](CCCCNC(=O)COCCOCCNC(=O)COCCOCCNC(=O)CC[C@H](NC(=O)CCCCCCCCCCCCCCCCCCC(=O)O)C(=O)O)NC(=O)[C@H](CCC(=O)O)NC(=O)[C@H](CC(C)C)NC(=O)[C@H](CC(C)C)NC(=O)[C@](C)(CCCCN)NC(=O)[C@H](CO)NC(=O)[C@H](CC(C)C)NC(=O)[C@H](CC(=O)O)NC(=O)[C@H](CO)NC(=O)[C@@H](NC(=O)[C@H](Cc1ccccc1)NC(=O)[C@@H](NC(=O)CNC(=O)[C@H](Cc1c[nH]cn1)NC(=O)C(C)(C)NC(=O)[C@@H](N)Cc1c[nH]cn1)[C@@H](C)O)[C@@H](C)O)C(C)C)C(=O)N[C@@H](CCC(=O)O)C(=O)NCC(=O)NCC(=O)N1CCC[C@H]1C(=O)N[C@@H](CO)C(=O)N[C@@H](CO)C(=O)NCC(=O)N[C@@H](C)C(=O)N1CCC[C@H]1C(=O)N1CCC[C@H]1C(=O)N1CCC[C@H]1C(=O)N[C@@H](CO)C(N)=O` (stereo partly drawn) [Compound 0133] (H-H[Aib]HGTFTSDLS[αMeK]LLEK([AEEA-AEEA-γGlu-C20 diacid])KAA[ξIva]EFVEWLIEGGPSSGAPPPS-NH2): the EC50 came to 0.016 nM on human GLP-1R (setting [2]), 0.002 nM on human GIPR (setting [3]) and 0.03 nM on human GCGR (setting [4]).
Turning to `CC[C@H](C)[C@H](NC(=O)[C@](C)(CCCCN)NC(=O)[C@H](CO)NC(=O)[C@H](Cc1ccc(O)cc1)NC(=O)[C@H](CC(=O)O)NC(=O)[C@H](CO)NC(=O)[C@@H](NC(=O)[C@H](Cc1ccccc1)NC(=O)[C@@H](NC(=O)CNC(=O)[C@H](Cc1c[nH]cn1)NC(=O)C(C)(C)NC(=O)[C@@H](N)Cc1c[nH]cn1)[C@@H](C)O)[C@@H](C)O)C(=O)N[C@@H](CC(C)C)C(=O)N[C@@H](CCC(=O)O)C(=O)N[C@@H](CCCCNC(=O)COCCOCCNC(=O)COCCOCCNC(=O)CC[C@H](NC(=O)CCCCCCCCCCCCCCCCCCC(=O)O)C(=O)O)C(=O)N[C@@H](CCCCN)C(=O)N[C@@H](C)C(=O)N[C@@H](C)C(=O)N[C@@H](CCC(N)=O)C(=O)N[C@@H](CCC(=O)O)C(=O)N[C@@H](Cc1ccccc1)C(=O)N[C@H](C(=O)N[C@@H](CCC(=O)O)C(=O)N[C@@H](Cc1c[nH]c2ccccc12)C(=O)N[C@@H](CC(C)C)C(=O)N[C@@H](CC(C)C)C(=O)N[C@@H](C)C(=O)NCC(=O)NCC(=O)N1CCC[C@H]1C(=O)N[C@@H](CO)C(=O)N[C@@H](CO)C(=O)NCC(=O)N[C@@H](C)C(=O)N1CCC[C@H]1C(=O)N1CCC[C@H]1C(=O)N1CCC[C@H]1C(=O)N[C@@H](CO)C(N)=O)C(C)C` [Compound 0119] (H-H[Aib]HGTFTSDYS[αMeK]ILEK([AEEA-AEEA-γGlu-C20 diacid])KAAQEFVEWLLAGGPSSGAPPPS-NH2), the concentration giving a half-maximal response (EC50) at human GLP-1R amounted to 0.023 nM. Also, in data set [1], the AUC(0-inf) stood at 55.9 µM·h, the C0 worked out at 6.17 µM, the clearance was 0.058 mL/min/kg and the half-life was 13 h. This compound also showed an EC50 on human GIPR of 0.005 nM. A half-maximal effect on human GCGR (EC50) was put at 0.087 nM.
Turning to `CC[C@H](C)[C@H](NC(=O)[C@H](CO)NC(=O)[C@H](Cc1ccc(O)cc1)NC(=O)[C@H](CC(=O)O)NC(=O)[C@H](CO)NC(=O)[C@@H](NC(=O)[C@H](Cc1ccccc1)NC(=O)[C@@H](NC(=O)CNC(=O)[C@H](Cc1c[nH]cn1)NC(=O)C(C)(C)NC(=O)[C@@H](N)Cc1c[nH]cn1)[C@@H](C)O)[C@@H](C)O)C(=O)N[C@@H](CC(C)C)C(=O)N[C@@H](CC(C)C)C(=O)N[C@@H](CCC(=O)O)C(=O)N[C@@H](CCCCNC(=O)COCCOCCNC(=O)COCCOCCNC(=O)CC[C@H](NC(=O)CCCCCCCCCCCCCCCCCCC(=O)O)C(=O)O)C(=O)N[C@@H](CCCCN)C(=O)N[C@@H](C)C(=O)N[C@@H](C)C(=O)NC(C)(CC)C(=O)N[C@@H](CCC(=O)O)C(=O)N[C@@H](Cc1ccccc1)C(=O)N[C@H](C(=O)N[C@@H](CCC(=O)O)C(=O)N[C@@H](Cc1c[nH]c2ccccc12)C(=O)N[C@@H](CC(C)C)C(=O)N[C@@H](CC(C)C)C(=O)N[C@@H](C)C(=O)NCC(=O)NCC(=O)N1CCC[C@H]1C(=O)N[C@@H](CO)C(=O)N[C@@H](CO)C(=O)NCC(=O)N[C@@H](C)C(=O)N1CCC[C@H]1C(=O)N1CCC[C@H]1C(=O)N1CCC[C@H]1C(=O)N[C@@H](CO)C(N)=O)C(C)C` (stereo partly drawn) [Compound 0135], the half-maximal effective concentration (EC50) on human GLP-1R (setting [2]) stood at 0.013 nM; on human GIPR (setting [3]) it was 0.001 nM; at human GCGR (setting [4]) it was 0.019 nM.
Turning to `CC(C)C[C@H](NC(=O)[C@H](CC(C)C)NC(=O)[C@H](Cc1c[nH]c2ccccc12)NC(=O)[C@H](CCC(=O)O)NC(=O)[C@@H](NC(=O)[C@H](Cc1ccccc1)NC(=O)[C@H](CCC(=O)O)NC(=O)[C@H](CCC(N)=O)NC(=O)[C@H](C)NC(=O)[C@H](C)NC(=O)[C@H](CCCCN)NC(=O)[C@H](CCCCNC(=O)COCCOCCNC(=O)COCCOCCNC(=O)CC[C@H](NC(=O)CCCCCCCCCCCCCCCCCCC(=O)O)C(=O)O)NC(=O)[C@H](CCC(=O)O)NC(=O)[C@H](CC(C)C)NC(=O)[C@H](CC(C)C)NC(=O)[C@](C)(CCCCN)NC(=O)[C@H](CO)NC(=O)[C@H](Cc1ccc(O)cc1)NC(=O)[C@H](CC(=O)O)NC(=O)[C@H](CO)NC(=O)[C@@H](NC(=O)[C@H](Cc1ccccc1)NC(=O)[C@@H](NC(=O)CNC(=O)[C@H](Cc1c[nH]cn1)NC(=O)C(C)(C)NC(=O)[C@@H](N)Cc1c[nH]cn1)[C@@H](C)O)[C@@H](C)O)C(C)C)C(=O)N[C@@H](C)C(=O)NCC(=O)NCC(=O)N1CCC[C@H]1C(=O)N[C@@H](CO)C(=O)N[C@@H](CO)C(=O)NCC(=O)N[C@@H](C)C(=O)N1CCC[C@H]1C(=O)N1CCC[C@H]1C(=O)N1CCC[C@H]1C(=O)N[C@@H](CO)C(N)=O` [Compound 0112] (H-H[Aib]HGTFTSDYS[αMeK]LLEK([AEEA-AEEA-γGlu-C20 diacid])KAAQEFVEWLLAGGPSSGAPPPS-NH2), the figures for the EC50 at human GIPR (setting [3]) and on human GCGR (setting [4]) were 0.005 nM and 0.087 nM, respectively.
